Data published in patent US20250017964A1, “ENGINEERING OR INDUCING PDGF AND/OR PDGFR SIGNALING TO ENHANCE NK CELL THERAPY” (City of Hope, priority 2021, published 2025).

System: PDGFRβ
Experiment: PDGFRβ localisation: immunofluorescence and immunoblot of cell fractions
Format: cell-based, human
Description: FIGS. 1A-1J. IL-15 induces PDGFRβ expression in human NK cells. (A-C) NK cells were purified from PBMCs of healthy donors and stimulated with IL-15 (10 ng/ml) for 24 h. Expression levels of PDGFRα and PDGFRβ were examined by flow cytometry. Data shown are representative dot plots (A), percentages (B), and mean fluorescence intensity (MFI) of PDGFRβ in NK cells (C) (n=20). Resting NK cells were used as the control. (D-E) NK cells were treated with various doses of IL-15 for 24 h (D) or with the same dose of IL-15 (10 ng/ml) at the indicated times (E). Data shown are the percentages of PDGFRβ^+ NK cells among total NK cells (n=5). (F) Immunofluorescence analysis of PDGFRβ expression on resting and IL-15-treated NK cells. Sodium-potassium ATPase was used as a cell membrane marker. Bar=20 μm. (G) Expression of PDGFRβ in the cytoplasmic, nuclear, and cell membrane fractions of NK cells determined by immunoblotting. […] Expression levels of PDGFRβ were then determined by flow cytometry. […]
RNA was isolated using an RNeasy Mini Kit (QIAGEN) and reversely transcribed to cDNA with a PrimeScript RT Reagent Kit with gDNA Eraser (Takara Bio) according to the manufacturer's protocol. mRNA expression levels were analyzed using SYBR Green qPCR Master Mix and a QuantStudio 12K Flex Real-Time PCR System (both from Thermo Fisher Scientific). […]

In the case of “IL-15: recombinant human IL-15 (200-15); recombinant murine IL-15 in the mouse NK cell test”, the “PDGFRβ localisation by immunofluorescence” value (IL-15-treated versus resting NK cells) is reported as “expressed on the membrane” and the “PDGFRβ in cytoplasmic, nuclear and cell membrane fractions by immunoblotting” value (after stimulation by IL-15) is reported as “enriched in the cytoplasm and translocated to the cell membrane”.
